Experimental data published in patent US5399790A, “Non-steroid and non-prostanoid inhibitors of steroid and prostaglandin transforming enzymes” (Trustees of The University of Pennsylvania, priority 1993, dated 1995).
“Also recorded” adds a separate entry of the source.

Tests used:
3α-HSD [1] = target: T1, 3α-HSD (Rattus norvegicus, UniProt P23457); assay: chromatography of inactivated 3α-HSD on the immobilized nucleotide analog Cibacron Blue; assay type: binding
T1 construct: the purified 3α-HSD of rat liver cytosol; from tissue; host or cells: rat liver (cytosol)
T1 sequence (P23457 1-322): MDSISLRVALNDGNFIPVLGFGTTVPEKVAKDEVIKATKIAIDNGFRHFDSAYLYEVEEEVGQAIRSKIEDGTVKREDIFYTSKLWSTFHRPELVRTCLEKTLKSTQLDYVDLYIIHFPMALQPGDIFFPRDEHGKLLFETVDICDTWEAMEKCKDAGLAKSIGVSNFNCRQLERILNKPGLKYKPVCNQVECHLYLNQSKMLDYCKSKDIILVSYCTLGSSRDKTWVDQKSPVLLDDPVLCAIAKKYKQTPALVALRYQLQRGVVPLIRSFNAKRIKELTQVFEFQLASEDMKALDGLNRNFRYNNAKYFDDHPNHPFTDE
Excerpt: (§1) Three types of experimental evidence indicate that both the enone (III) and the acetylenic ketone (IV) alkylate the pyridine nucleotide binding domain in preference to the steroid binding site of the enzyme. […] Third, chromatographic experiments using the immobilized nucleotide analog Cibacron Blue indicate that both native enzyme and enzyme inactivated with the steroid affinity alkylator, 17β-bromoacetoxy-5α-androstan-17β-ol-3-one, bind tightly to the immobilized nucleotide analog. By contrast, enzyme inactivated by either (III) or (IV) has no affinity for the immobilized nucleotide analogue. This experimental evidence implies that the alkylators (III) and (IV) covalently modify the nucleotide binding domain of 3α-HSD.

[2] = system: 3α-HSD and 3(17)β-HSD (Pseudomonas testosteroni), 3α,20α-HSD (Streptomyces hydrogenase), 20α-HSD (rat ovary), 3β-HSD (rat liver), alcohol dehydrogenase …; assay: broad screen of the alcohols as suicide substrates of dehydrogenases; assay type: biochemical; conditions: eight dehydrogenases screened
Procedure: A broad screen was conducted in which the allylic (I) and acetylenic alcohols (II) were examined as suicide substrates of the following enzymes: 3α-HSD and 3(17)β-HSD (Pseudomonas testosteroni), 3α,20α-HSD (Streptomyces hydrogenase), 20α-HSD (rat ovary), 3β-HSD (rat liver), alcohol dehydrogenase (yeast), lactate dehydrogenase (porcine heart) and 3α-HSD (rat liver).

3α-HSD [3] = target: T1, 3α-HSD; assay: time dependent inactivation of purified 3α-HSD; assay type: biochemical; conditions: for return of enzyme activity after inactivation: gel filtration or extensive dialysis of the inactivated enzyme; for inactivation of 3α-HSD: result in words
Procedure: 3α-HSD (24 μM of purified enzyme) was incubated in systems (30 μl) containing 1.2 mM NAD^+, 10 mM potassium phosphate buffer pH 7.0, 1 mM EDTA and 5% acetonitrile as a co-solvent. Enzyme activity was followed over time by diluting an aliquot of the incubation mixture into a 1 ml assay containing: 2.3 mM NAD^+ and 75 μM androsterone in 0.1M potassium phosphate buffer pH 7.0, with 4% acetonitrile as a co-solvent. Initial rates were determined spectrophotometrically by measuring the rate of NADH formation at 340 nm. Because of the 100 fold or greater dilution of the enzyme into the assay, the initial rate measured is an indication of the enzyme activity remaining at that time. Semi-log plots of the amount of enzyme remaining vs. time are curvilinear (panel a). Initial rates of inactivation (kapp's) were estimated by taking tangents to these curves. Data was replotted as 1/kapp vs 1/allylic alcohol from which kinact (the rate constant for enzyme inactivation) and Ki (the binding constant of the allylic alcohol) were determined, (panel b).
Inactivation of 3α-HSD (24 μM) was conducted in incubations (60 μl) of 10 mM potassium phosphate buffer pH 7.0 containing 1 mM EDTA and 4% acetonitrile as a co-solvent. After the initial enzyme activity was determined (see the legend of FIG. 2 for assay composition), the concentration of inactivator indicated (.cndot.=0 μM, .circle.=2.1 μM, =4.9 μM, .gradient.=10.0 μM, =15.0 μM, []24.0 μM) was added and the sample incubated at 25° C. Over time, samples were withdrawn and diluted into the standard assay to determine the amount of enzyme activity remaining. A secondary plot of the amount of enzyme inactivated vs. the amount of inhibitor added provided the stoichiometry of inactivation when corrected for nonspecific loss of enzyme activity (panel b). The continuous line without points is a theoretical line for a stoichiometry of 1:1.

3α-HSD [4] = target: T1, 3α-HSD; assay: steady state kinetic measurements and protection from inactivation of 3α-HSD; assay type: biochemical; conditions: for type of inhibition versus NAD+ binding / type of inhibition versus androsterone binding: steady state kinetic measurements
Excerpt: as §1

cyclooxygenase = target: T2, cyclooxygenase (Ovis aries, UniProt P05979); assay: time dependent inactivation of semi-purified cyclooxygenase (oxygen consumption); assay type: biochemical, sheep; conditions: for inactivation of cyclooxygenase / prostaglandin synthases: result in words
T2 construct: cyclooxygenase obtained from sheep seminal vesicle microsomes; from tissue; host or cells: sheep seminal vesicle microsomes
T2 sequence (P05979 25-600): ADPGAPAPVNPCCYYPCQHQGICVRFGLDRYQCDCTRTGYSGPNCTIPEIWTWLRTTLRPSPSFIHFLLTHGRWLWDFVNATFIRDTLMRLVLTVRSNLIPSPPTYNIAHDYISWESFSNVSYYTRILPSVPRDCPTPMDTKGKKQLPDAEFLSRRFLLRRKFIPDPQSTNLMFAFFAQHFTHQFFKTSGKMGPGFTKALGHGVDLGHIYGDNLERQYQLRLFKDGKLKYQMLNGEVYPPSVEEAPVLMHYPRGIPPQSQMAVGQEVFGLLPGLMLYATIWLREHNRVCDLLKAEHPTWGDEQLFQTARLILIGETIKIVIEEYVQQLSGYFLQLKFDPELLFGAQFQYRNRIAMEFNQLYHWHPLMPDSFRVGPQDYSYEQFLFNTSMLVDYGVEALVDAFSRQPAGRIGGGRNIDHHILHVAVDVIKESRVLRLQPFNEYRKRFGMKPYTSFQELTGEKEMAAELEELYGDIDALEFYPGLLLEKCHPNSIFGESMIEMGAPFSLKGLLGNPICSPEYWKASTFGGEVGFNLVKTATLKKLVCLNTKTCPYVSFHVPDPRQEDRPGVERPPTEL
Procedure: Semi-purified cyclooxygenase (480 μg) was pre-incubated in 100 μl systems containing the inhibitor concentrations indicated, along with 50 mM Tris-HCl (pH=7.2), 100 μM EDTA, 1 mM phenol, 1 μM hematin, 1% Tween, and 10% DMSO. At the time intervals shown, 5 μl aliquots were removed and diluted into a 600 μl assay system containing 100 mM potassium phosphate (pH=7.2), 1 mM phenol, and 100 μM arachidonic acid. The rate of oxygen consumption was then measured. The maximum rate of oxygen uptake observed in these assays was 1.875 μmoles of oxygen consumed per minute per milligram protein.

[5] = substrate: C#CC(O)c1ccc([N+](=O)[O-])cc1; assay: enzymatic oxidation of the allylic and acetylenic alcohols by 3α-HSD in the presence of NAD+; assay type: biochemical, rat; conditions: other: oxidation by 3α-HSD in the presence of NAD+; pH 7.0; 25.0 °C
[6] = substrate: C=CC(O)c1ccc([N+](=O)[O-])cc1; assay: as above; assay type: biochemical, rat; conditions: other: oxidation by 3α-HSD in the presence of NAD+; pH 7.0; 25.0 °C

C[C@]12CCC(=O)C[C@@H]1CC[C@@H]1[C@@H]2CC[C@]2(C)[C@@H](OC(=O)CBr)CC[C@@H]12 [17β-bromoacetoxy-5α-androstan-17β-ol-3-one, reference compound]
binding of the inactivated enzyme to the immobilized nucleotide analog (3α-HSD [1]): bind tightly

C=CC(O)c1ccc([N+](=O)[O-])cc1 (stereo not drawn) [I, 1-(4'-nitrophenyl)-2-propen-1-ol]
selectivity as suicide substrate among the screened enzymes [2]: only rat liver 3α-HSD effectively oxidized the alcohols
t1/2 life for the enzyme (3α-HSD [3]; at a saturating allylic alcohol concentration): 8 s
molecules of the allylic alcohol oxidized for every molecule of enzyme inactivated (3α-HSD [3]; comparison of the rate of oxidation with that of enzyme inactivation): ≤ 10 molecules
partition ratio kcat/kinact (3α-HSD [3]; estimated, theoretical limit 1): 5.3
return of enzyme activity after inactivation (3α-HSD [3]): enzyme activity does not return
Ki (3α-HSD [3]; method of Kitz and Wilson, in the presence of NAD+): 1200 µM
inactivation of 3α-HSD (3α-HSD [3]): highly selective mechanism-based inactivators; also recorded: time-dependent loss of 3α-HSD activity

C#CC(O)c1ccc([N+](=O)[O-])cc1 (stereo not drawn) [II, 1-(4'-nitrophenyl)-2-propyn-1-ol]
selectivity as suicide substrate among the screened enzymes [2]: only rat liver 3α-HSD effectively oxidized the alcohols
return of enzyme activity after inactivation (3α-HSD [3]): enzyme activity does not return
inactivation of 3α-HSD (3α-HSD [3]): highly selective mechanism-based inactivators

C=CC(=O)c1ccc([N+](=O)[O-])cc1 [III, 1-(4'-nitrophenyl)-2-propen-1-one]
binding of the inactivated enzyme to the immobilized nucleotide analog (3α-HSD [1]): no affinity
protection of 3α-HSD from inactivation by NAD+ (3α-HSD [4]): complete protection
protection of 3α-HSD from inactivation by androsterone and other compounds competitive for the steroid binding site (3α-HSD [4]): slow the rate of inactivation but do not completely block this event
type of inhibition versus NAD+ binding (3α-HSD [4]): competitive inhibitors
type of inhibition versus androsterone binding (3α-HSD [4]): non-competitive or mixed inhibitors
inactivation of cyclooxygenase / prostaglandin synthases (cyclooxygenase): irreversibly inactivate prostaglandin synthases in a time dependent manner
inactivation of cyclooxygenase / prostaglandin synthases (cyclooxygenase; listed as iii): time and concentration dependent inactivation
t1/2 life at saturation (cyclooxygenase; semi-purified cyclooxygenase from sheep seminal vesicle microsomes): 60 to 120 s
IC50 (cyclooxygenase; semi-purified cyclooxygenase from sheep seminal vesicle microsomes, read-out: concentration required to inactivate 50% of the enzyme activity): 837 µM
inactivation of 3α-HSD (3α-HSD [3]): stoichiometric inactivators; also recorded: too fast to accurately measure; also recorded: rapid and stoichiometric

C#CC(=O)c1ccc([N+](=O)[O-])cc1 [IV, 1-(4'-nitrophenyl)-2-propyn-1-one]
binding of the inactivated enzyme to the immobilized nucleotide analog (3α-HSD [1]): no affinity
protection of 3α-HSD from inactivation by NAD+ (3α-HSD [4]): complete protection
protection of 3α-HSD from inactivation by androsterone and other compounds competitive for the steroid binding site (3α-HSD [4]): slow the rate of inactivation but do not completely block this event
type of inhibition versus NAD+ binding (3α-HSD [4]): competitive inhibitors
type of inhibition versus androsterone binding (3α-HSD [4]): non-competitive or mixed inhibitors
inactivation of cyclooxygenase / prostaglandin synthases (cyclooxygenase): irreversibly inactivate prostaglandin synthases in a time dependent manner
inactivation of cyclooxygenase / prostaglandin synthases (cyclooxygenase; listed as iv): time and concentration dependent inactivation
inactivation of 3α-HSD (3α-HSD [3]): stoichiometric inactivators; also recorded: rapid and stoichiometric

CC(=O)Oc1ccccc1C(=O)O [acetyl salicylate, reference compound]
cyclooxygenase inactivated (cyclooxygenase; 100 μM, over 20 hours): 50%

B1: 3α-HSD (Rattus norvegicus) (protein)
chain: MDSISLRVALNDGNFIPVLGFGTTVPEKVAKDEVIKATKIAIDNGFRHFDSAYLYEVEEEVGQAIRSKIEDGTVKREDIFYTSKLWSTFHRPELVRTCLEKTLKSTQLDYVDLYIIHFPMALQPGDIFFPRDEHGKLLFETVDICDTWEAMEKCKDAGLAKSIGVSNFNCRQLERILNKPGLKYKPVCNQVECHLYLNQSKMLDYCKSKDIILVSYCTLGSSRDKTWVDQKSPVLLDDPVLCAIAKKYKQTPALVALRYQLQRGVVPLIRSFNAKRIKELTQVFEFQLASEDMKALDGLNRNFRYNNAKYFDDHPNHPFTDE
notes: the purified 3α-HSD of rat liver cytosol; from tissue; host or cells: rat liver (cytosol)
Vmax [5]: 0.3 µmol/min/mg
Km [6]: 2020 µM
Vmax [6]: 0.58 µmol/min/mg
